Reference: US12527835B2, “Brevican-binding peptides for brain tumor imaging” (The Brigham and Women's Hospital, Inc., priority 2018, dated 2026)
Where a SMILES comes first, the peptide text is derived from it. Where no end group is shown, it is not given here. [ ]: non-standard residue; d: D form. The star is where a group is joined. X1 = O=C(O)c1cc(NC(=S)*)ccc1-c1c2ccc(=O)cc-2oc2cc(O)ccc12; Ahx = NCCCCCC(=O)O

What was measured:
[1] = target: T1, glycosylated isoform of normal brevican (Bcan) (Homo sapiens, UniProt Q96GW7); assay: Octet steady state binding to fully glycosylated brevican (control); settings: Octet steady state analysis
T1 construct: purchased R&D Systems 4009-BC-050
T1 sequence (Q96GW7 23-911): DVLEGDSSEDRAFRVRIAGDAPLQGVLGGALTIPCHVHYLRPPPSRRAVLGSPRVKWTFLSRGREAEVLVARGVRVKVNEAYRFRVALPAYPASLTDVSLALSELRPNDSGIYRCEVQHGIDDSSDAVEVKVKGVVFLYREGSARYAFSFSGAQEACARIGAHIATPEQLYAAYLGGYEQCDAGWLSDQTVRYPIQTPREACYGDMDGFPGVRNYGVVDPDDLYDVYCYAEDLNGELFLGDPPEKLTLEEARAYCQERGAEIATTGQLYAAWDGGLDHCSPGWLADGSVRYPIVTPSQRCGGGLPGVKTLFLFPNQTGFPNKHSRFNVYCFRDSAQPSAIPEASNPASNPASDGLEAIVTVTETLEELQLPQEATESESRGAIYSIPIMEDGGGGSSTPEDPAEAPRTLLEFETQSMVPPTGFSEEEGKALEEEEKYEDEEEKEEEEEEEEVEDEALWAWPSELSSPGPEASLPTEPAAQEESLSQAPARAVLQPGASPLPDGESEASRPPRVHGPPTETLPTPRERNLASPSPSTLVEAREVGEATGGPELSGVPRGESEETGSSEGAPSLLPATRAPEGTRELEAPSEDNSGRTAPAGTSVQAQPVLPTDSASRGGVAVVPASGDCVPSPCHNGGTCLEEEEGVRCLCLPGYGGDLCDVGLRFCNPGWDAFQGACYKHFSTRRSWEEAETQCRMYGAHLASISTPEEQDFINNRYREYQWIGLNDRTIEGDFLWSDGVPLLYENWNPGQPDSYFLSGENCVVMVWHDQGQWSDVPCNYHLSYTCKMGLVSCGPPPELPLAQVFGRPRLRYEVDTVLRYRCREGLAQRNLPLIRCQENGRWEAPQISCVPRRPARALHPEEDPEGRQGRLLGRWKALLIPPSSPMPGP

[2] = target: T2, recombinant BΔg protein (deglycosylated brevican) (Homo sapiens, UniProt Q96GW7); assay: Octet steady state binding affinity to recombinant BΔg; settings: KD of labeled versus unlabeled peptide
T2 construct: purchased R&D Systems 4009-BC-050
T2 sequence (Q96GW7 23-911): T1 sequence (Q96GW7 23-911)
Method: A ForteBio OctetRed384 instrument was used to study the binding kinetics of each peptide to recombinant human brevican (re-suspended in PBS and 0.1 mM EDTA, pH 6.8). The brevican protein was deglycosylated prior to experimental use in water+0.05% tween, PI, sialidase, 0-glycosidase, N-glycosidase in sodium acetate [200 mM], NaCl [250 mM], Tris-HCl [200 mM], pH 7.5.) in the presence of protease inhibitor overnight at 4° C. (this entire composition will be referred to as ‘de-glycosylation buffer’). […] The final volume for all the solutions was 80 μl/well. Assays were performed at 30° C. in solid black 384-well plates (Geiger Bio-One). Prior to beginning, Ni-NTA biosensors were soaked for 10 min in working buffer. Before loading the protein onto each biosensor, a baseline was established in working buffer for 60 s. Deglycosylated brevican (50 μg/ml BΔg; His-tagged) was loaded on the surface of each biosensors for 180 s. […] Reference biosensors were also included in the plate as internal controls, where biosensors were exposed to the ‘de-glycosylation buffer’ lacking brevican protein during the loading step. A 60 s biosensor washing step was applied. Then, biosensors were exposed to the analyte (peptide) in working buffer (ranging between 0-10 μM BTP) for 300 s during the ‘association’ step. Finally, the biosensors were exposed to working buffer (without peptide) during the ‘dissociation’ step for 600 s. Binding affinity of each peptide was assessed through steady state analysis, where the response unit was plotted over peptide concentration. All data was plotted and curves were fitted using the non-linear ‘one-site specific binding’ fit, and the dissociation constant (KD) value was calculated using the GraphPad Prism software.
Binding kinetics analyses were performed using the Octet RED platform (Forte Bio) to measure the binding affinity of BTP-7, 8 and 9 to purified recombinant BΔg protein.

[3] = healthy mice, 4 hours post-intravenous administration, IVIS
Method: The lyophilized BTP-7-Cy5.5 powders were dissolved to a final concentration of 10 mM in DMSO by mass. The peptide was then diluted to a concentration of 100 μM in a solution of 50:50 polyethylene glycol (PEG)-300:0.9% sodium chloride (v/v) irrigation solution. A 100 μL dose of each peptide solution was administered intravenously via the tail vein into healthy 8-week old female nude mice. After 4 hours, 100 μL of 50 mg/mL tetramethylrhodamine isothiocyanate-labeled dextran (155 kDa) in 0.9% sodium chloride was injected via the tail vein. Mice were sacrificed 30 min later by cervical dislocation. The brain, heart, lungs, kidneys, spleen, and liver were excised from each mouse, frozen on dry ice and imaged using an In Vivo Imaging System (Perkin Elmer) at an excitation of 640 nm. Using Living Image software, regions of interest were drawn around each organ and the total radiant efficiency of Cy5.5 from each organ was quantified.

HEK-Bcan cells [4] = assay: Flow cytometry cell uptake, HEK-Bcan versus regular HEK cells; format: cell-based, human; settings: Cy5.5-conjugated peptides, 5 μM
Method: (§1) Cells were washed once with PBS and then, treated with 1 mL of 2.5 mM EDTA to dissociate the cells. The EDTA was removed by centrifugation, and PBS supplemented with 10% FBS was added to create a single-cell suspension. All peptide stocks were dissolved in DMSO, and stored at −20° C. in the dark. Cells were incubated with each peptide (at the desired final concentration, between 1-10 μM) for 3 hrs at 37° C. in the dark under constant rotation. After incubation, cells were washed 3× with PBS with 10% FBS (by centrifugation at 7000 rpm for 3 mins each). Then, cells were resuspended in 3.7% formaldehyde for fixation, and finally washed once with PBS. Cells were evaluated for peptide uptake (mean fluorescence intensity) by flow cytometry (10,000-20,000 events).

intracranial GBM-6 tumor = assay: Intracranial GBM-6 tumor uptake analysis in nude mice; format: in vivo, mouse; settings: i.v. tail vein, 100 μL of 500 μM
Method: For intracranial tumor implantation, animals were injected with 100,000 GBM-6 cells in the right frontal lobe of the mouse brain. Briefly, nude mice (6-8 weeks) were anaesthetized by i.p. injection with ketamine/xylazine/acepromazine mixed in 0.9% NaCl saline solution. Then, the mice heads were mounted onto a stereotactic frame, and sterilized by swabbing with iodine solution. An 8-10 mm sagittal incision was made with a scalpel, and the bregma of the skull was identified. A Hamilton syringe containing GBM-6 cells (in PBS; 3 μL volume) was inserted into the coronal suture of the skull at the following coordinates from the bregma: 2 mm right and 0.5 mm forward. The tip of the needle was lowered/implanted into the brain (3.5 mm distance). GBM-6 cells were injected slowly (0.1 μL per 10 seconds). After that, the needle was retracted, and the skin around the incision was sutured back together. Mice were allowed to recover after surgery (meloxicam were given as analgesia post-surgery). […] After 8 hrs, mice were sacrificed and their brains excised, cryosectioned, stained with Hoechst dye and imaged by fluorescence microscopy. […] The mean Cy5.5 fluorescence intensity of the tumor was performed on ImageJ and compared with the mean fluorescence intensity on the non-tumor area on the contralateral (left) side of the brain.

GBM-6 cells = assay: Flow cytometry cell uptake in GBM-6 cells; format: cell-based, human
Method: as §1

[5] = In vivo analysis of BBB permeability in non-tumor bearing mice; set-up: species or system mouse; settings: i.v., 100 μL of 100 μM, 4 hrs
Method: To measure BBB penetration, naïve nude mice were injected intravenously via the tail vein with either Cy5.5-labeled BTP-7 or a scramble (Cy5.5-Scr-7) peptide (100 μL of 100 μM peptide solution). 4 hrs later, mice were injected with 100 μL of 50 mg/mL TRITC-dextran (155 kDa) via the tail vein. Mice were euthanized after 30 mins, and their brains excised, frozen and cryo-sectioned into 16 μm slices. Tissue sections from the frontal lobe were imaged by confocal microscopy using a 20× objective. Areas with high TRITC (red in original) signal indicate regions of high perfusion (i.e. blood vessels). Cy5.5 (peptide) intensity was measured in areas outside of visible TRITC signal to ensure that only peptide intensity in the brain parenchyma (peptide that has successfully extravasated from the vessels and accumulated in the brain tissues) was quantified.

BT188 glioma stem cells = assay: Peptide uptake in BT188 (BΔg-high) versus BT145 (BΔg-low) glioma stem cells, fluorescence imaging; format: cell-based, human; settings: fluorescein-labeled peptides, 5 μM
Excerpt: FIGS. 3A-I. Peptide characterization for BΔg specificity in glioma stem cells. (a) Table summary listing the properties of 7 peptides (composed of 8 D-amino acid residues, SEQ ID NOs:3-9, in order of appearance) that were isolated from the OBOC library screen. MW=molecular weight; KD=Kyte-Doolittle scale for amino acid hydropathy (positive scores indicate […]) (Kyte and Doolittle, J. Mol. Biol. 157, 105-132 (1982)). (b) Chemical structure showing the linkage between the peptide and FITC. (c) Western blot analysis showing the level of BΔg and Bcan in human embryo kidney (HEK) cells, and Bcan-overexpressing HEK cells (HEK-Bcan). […] Each group was normalized to a no-blocking (vehicle) control. Statistics were performed using multiple t-tests, and significance was measured in comparison to each vehicle control (p<0.0001). (e) Uptake of fluorescein-labeled BTP-2, 7, 8, 9, and 10 (at 5 μM conc.) in BT188 (BΔg-high) or BT145 (BΔg-low) glioma stem cells (GSCs). Western blot analysis on the top right confirms the BΔg expression level. […] Statistics were performed using the two-way ANOVA and Tukey's Multiple Comparison test. (f) Chemical structure showing the linkage between the peptide and Cy5.5 dye. (g) Western blot analysis showing the expression of BΔg in GBM-6 cells, with negligible BΔg level in astrocytes or neural progenitor cells (NPC). (h) Graph showing the cell uptake ranking of the top 3 peptide candidates, BTP-7, 8 and 9 in GBM-6 cells as determined by flow cytometry analysis with s.d. error bars (5 μM conc.; nevents=20,000 cells; nexperiment=5). Each group is normalized to the control scramble peptide (Scr-8). Statistics were performed using the one-way ANOVA and Tukey's Multiple Comparison test (significance were measured in comparison to the Scr-8 control). (i) Bar graph showing the uptake of BTP-7, 8 and 9 in GBM-6 cells and NPC with 95% confidence interval error bars (1 μM conc.; nevents=20,000 cells). Statistics were performed using the two-way ANOVA and Sidak's Multiple Comparison test.

[6] = Solubility in aqueous solutions
HEK-Bcan cells [7] = assay: Flow cytometry blocking study with 50× molar excess of unlabeled peptide; format: cell-based, human; settings: fluorescein-conjugated peptide 1 μM
Method: as §1
For blocking studies, cells were dissociated as described above and resuspended in cold PBS with 10% FBS. Cells were then incubated with a 50× molar excess of unlabeled peptide for 10 mins on ice, before adding the corresponding FITC-labeled peptide at a final concentration of 1 μM and incubated for 1.5 hrs on ice. Cells were then washed with cold PBS with 10% FBS, fixed and analyzed by flow cytometry.

CC(C)[C@@H](NC(=O)[C@@H](Cc1c[nH]cn1)NC(=O)CNC(=O)[C@@H](Cc1c[nH]c2ccccc12)NC(=O)[C@@H](CCCCN)NC(=O)[C@H](N)[C@H](C)O)C(=O)N[C@H](CC(N)=O)C(=O)N[C@H](CCCCN)C(=O)NCCCCCC(=O)N[C@@H](CCCCNC(=S)Nc1ccc(-c2c3ccc(=O)cc-3oc3cc(O)ccc23)c(C(=O)O)c1)C(N)=O [BTP-7 conjugated to a fluorescein dye] (H-[dT][dK][dW]G[dH][dV][dN][dK][Ahx]K(X1)-NH2)
binding to the glycosylated isoform of normal brevican [1]: does not bind | binding affinity relative to the unlabeled BTP-7 (times less) [2]: more than 10 times

CC(C)[C@@H](NC(=O)[C@@H](Cc1c[nH]cn1)NC(=O)CNC(=O)[C@@H](Cc1c[nH]c2ccccc12)NC(=O)[C@@H](CCCCN)NC(=O)[C@H](N)[C@H](C)O)C(=O)N[C@H](CC(N)=O)C(=O)N[C@H](CCCCN)C(=O)NCCCCCC(=O)N[C@@H](Cc1cn(CCCNC(=O)CCCCC[N+]2=C(/C=C/C=C/C=C3/N(C)c4ccc5ccccc5c4C3(C)C)C(C)(C)c3c2ccc2ccccc32)nn1)C(N)=O [BTP-7-Cy5.5]
fluorescence intensity in liver and kidneys [3]: highest fluorescence intensity | uptake in brain and heart compared to other organs [3]: relatively low uptake | uptake in HEK-Bcan cells compared with regular HEK cells (HEK-Bcan cells [4]): significantly higher | tumor uptake compared to the control Cy5.5 dye (without peptide) (intracranial GBM-6 tumor; brain cryo-sections, mean Cy5.5 intensity in tumor): more than 10 times | fluorescence intensity of tumor compared to the contralateral area (intracranial GBM-6 tumor; tumor-to-non-tumor ratio): 4 times | uptake in GBM-6 GSCs compared with astrocytes (GBM-6 cells; Cy5.5-conjugated peptides): significantly higher | uptake in GBM-6 cells at 4° C. compared to 37° C. (GBM-6 cells; Cy5.5-conjugated peptides, 5 μM, inhibition of endocytosis): significantly reduced | cell uptake ranking in GBM-6 cells (GBM-6 cells; Cy5.5-labeled, 5 μM, normalized to Scr-8): highest uptake | accumulation in the brain parenchyma outside of regions of high perfusion ([5]; healthy non-tumor bearing mice, confocal microscopy): accumulated within the brain parenchyma | level of extravasation across the BBB compared with Scr-7 ([5]; mean Cy5.5 intensity in parenchyma): higher that of Scr-7

BTP-2: BΔg-targeting peptide of 8 D-amino acid residues from OBOC screen; sequence only in FIG. 3A ([dW][dR][dK][dA][dF][dT]G[dY]; not fully specified)
uptake in BT188 GSCs compared with BT145 GSCs (BT188 glioma stem cells): greater uptake | solubility in aqueous solutions compared to the other peptides [6]: more insoluble in aqueous solutions | uptake in HEK-Bcan cells in the presence of the blocking peptide (HEK-Bcan cells [7]): reduced uptake
